Here are results for 29 compounds from patent publication US20250171463A1 (BIOGEN MA INC., priority 2022, published 2025).

The IC50 is the concentration needed to halve the response being measured. High values mean a need for much substance, low ones inhibition by little substance.

The target of the test is T1, EBP (Homo sapiens, UniProt Q15125).
T1 construct: HEK293T cells were utilized as the source of EBP enzyme; endogenous in cells; host or cells: HEK293T
The experiment in a line: EBP Functional Assay (EBP immunoaffinity LC-MS assay). The settings on record: EBP enzyme from HEK293T cells; 30 min with inhibitor, then zymosterol-d5, 37° C., 4 h; percent conversion to dehydrolathosterol-d5 by LC-APCI MRM MS. It is filed as biochemical. In outline:
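IC50 comes from a 4-parameter logistic fit of zymosterol-d5-to-product percent conversion, measured by LC-APCI MRM MS after sterol extraction. Compounds were preincubated 30 min with EBP from HEK293T cells before deuterated substrate was added for 4 h at 37° C; Tasin-1 served as reference.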

T1 sequence (Q15125 whole entry): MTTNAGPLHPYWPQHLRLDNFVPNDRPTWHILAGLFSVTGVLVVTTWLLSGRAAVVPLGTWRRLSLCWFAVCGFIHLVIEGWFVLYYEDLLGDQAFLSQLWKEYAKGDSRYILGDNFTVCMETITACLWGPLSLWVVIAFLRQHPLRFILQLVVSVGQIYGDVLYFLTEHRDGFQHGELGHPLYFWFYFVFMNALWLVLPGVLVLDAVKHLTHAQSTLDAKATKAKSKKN

Consider `Cc1ccc(S(=O)(=O)N2CC3(C[C@H]4CC[C@@H](C3)N4CC(C)(C)O)C2)c(C)c1` [Example 62, 1-((1′R,5′S)-1-((2,4-dimethylphenyl)sulfonyl)-8′-azaspiro[azetidine-3,3′-bicyclo[3.2.1]octan]-8′-yl)-2-methylpropan-2-ol], for which the IC50 was < 100 nM. Under `COC(C)(C)CN1CC2(C[C@H]3CC[C@@H](C2)N3S(=O)(=O)c2ccc(OC(F)F)cc2)C1` [Example 63, (1′R,5′S)-8′-((4-(Difluoromethoxy)phenyl)sulfonyl)-1-(2-methoxy-2-methylpropyl)-8′-azaspiro[azetidine-3,3′-bicyclo[3.2.1]octane]] stands 100 to 250 nM. With `COC(C)(C)CN1[C@@H]2CC[C@H]1CC1(C2)CN(S(=O)(=O)c2ccc(OC(F)F)cc2)C1` [Example 64, (1′R,5′S)-1-((4-(Difluoromethoxy)phenyl)sulfonyl)-8′-(2-methoxy-2-methylpropyl)-8′-azaspiro[azetidine-3,3′-bicyclo[3.2.1]octane]], the IC50 lay in the range of 250 to 4000 nM. In turn, `O=S(=O)(c1cc(C(F)(F)F)nn1CC1CC1)N1CC2(CN(C3CCOCC3)C2)C1` [Example 65, 2-((1-(cyclopropylmethyl)-3-(trifluoromethyl)-1H-pyrazol-5-yl)sulfonyl)-6-(tetrahydro-2H-pyran-4-yl)-2,6-diazaspiro[3.3]heptane] gave an IC50 of 250 to 4000 nM. On to `O=S(=O)(c1cc(C(F)(F)F)nn1CC1CC1)N1CC2(CN(CC3CCOCC3)C2)C1` [Example 66, 2-((1-(cyclopropylmethyl)-3-(trifluoromethyl)-1H-pyrazol-5-yl)sulfonyl)-6-((tetrahydro-2H-pyran-4-yl)methyl)-2,6-diazaspiro[3.3]heptane], for which the IC50 lay within 250 to 4000 nM. Compound `Cc1nc(Br)ccc1S(=O)(=O)N1CC2(CN(C3CCOCC3)C2)C1` [Example 67, 2-((6-bromo-2-methylpyridin-3-yl)sulfonyl)-6-(tetrahydro-2H-pyran-4-yl)-2,6-diazaspiro[3.3]heptane] came in with an IC50 of 250 to 4000 nM. In the case of `Cc1nc(C(F)(F)F)ccc1S(=O)(=O)N1CC2(C1)CN([C@H]1C[C@]3(CCO3)C1)C2` [Example 70, 2-((2-methyl-6-(trifluoromethyl)pyridin-3-yl)sulfonyl)-6-((4s,6s)-1-oxaspiro[3.3]heptan-6-yl)-2,6-diazaspiro[3.3]heptane], the IC50 is < 100 nM.

`Cc1nc(C(F)(F)F)ccc1S(=O)(=O)N1CC2(C1)CN([C@H]1C[C@@]3(CCO3)C1)C2` [Example 71, 2-((2-methyl-6-(trifluoromethyl)pyridin-3-yl)sulfonyl)-6-((4r,6r)-1-oxaspiro[3.3]heptan-6-yl)-2,6-diazaspiro[3.3]heptane] gave an IC50 of 100 to 250 nM. In turn, `Cn1nc(C(F)(F)F)cc1S(=O)(=O)N1CC2(CN(CC3(C)CCOCC3)C2)C1` [Example 72, 2-((1-methyl-3-(trifluoromethyl)-1H-pyrazol-5-yl)sulfonyl)-6-((4-methyltetrahydro-2H-pyran-4-yl)methyl)-2,6-diazaspiro[3.3]heptane] displayed an IC50 of 100 to 250 nM.

As for `Cc1nc(C(F)(F)F)ccc1S(=O)(=O)N1CC2(CN(CC34COC(C)(C3)C4)C2)C1` [Example 73, 2-((1-methyl-2-oxabicyclo[2.1.1]hexan-4-yl)methyl)-6-((2-methyl-6-(trifluoromethyl)pyridin-3-yl)sulfonyl)-2,6-diazaspiro[3.3]heptane], the IC50 lay within 100 to 250 nM.

As to `Cc1nc(C(F)(F)F)ccc1S(=O)(=O)N1CC2(CN(CC34CCOC(C)(C3)C4)C2)C1` [Example 74, 2-((1-methyl-2-oxabicyclo[3.1.1]heptan-5-yl)methyl)-6-((2-methyl-6-(trifluoromethyl)pyridin-3-yl)sulfonyl)-2,6-diazaspiro[3.3]heptane], the IC50 is < 100 nM. Under `Cn1nc(C(F)(F)F)cc1S(=O)(=O)N1CC2(CN(C3(C)CCOCC3)C2)C1` [Example 76, 2-((1-methyl-3-(trifluoromethyl)-1H-pyrazol-5-yl)sulfonyl)-6-(4-methyltetrahydro-2H-pyran-4-yl)-2,6-diazaspiro[3.3]heptane] stands < 100 nM; under `Cc1nc(C(F)(F)F)ccc1S(=O)(=O)N1CC2(CN(C3(C)CCOCC3)C2)C1` [Example 77, 2-((2-methyl-6-(trifluoromethyl)pyridin-3-yl)sulfonyl)-6-(4-methyltetrahydro-2H-pyran-4-yl)-2,6-diazaspiro[3.3]heptane], < 100 nM. In turn, `Cc1nc(C(C)(F)F)ccc1S(=O)(=O)N1CC2(CN(C3CC4(COC4)C3)C2)C1` [Example 78, 2-((6-(1,1-difluoroethyl)-2-methylpyridin-3-yl)sulfonyl)-6-(2-oxaspiro[3.3]heptan-6-yl)-2,6-diazaspiro[3.3]heptane] returned a 50% inhibitory concentration (IC50) of 100 to 250 nM. Consider `Cc1nc(C(C)(F)F)ccc1S(=O)(=O)N1CC2(CN(C3CCOCC3)C2)C1` [Example 79], for which the IC50 was < 100 nM. `Cc1nc(C(C)(F)F)ccc1S(=O)(=O)N1CC2(CN(C3CCCOC3)C2)C1` (centres unmarked) [Example 80] displayed an IC50 of 250 to 4000 nM. As to `Cc1nc(C(C)(F)F)ccc1S(=O)(=O)N1CC2(CN(CC3CCOCC3)C2)C1` [Example 81], the IC50 was < 100 nM. For the compound `Cc1nc(C(C)(F)F)ccc1S(=O)(=O)N1CC2(CN(C(C)C3CCOCC3)C2)C1` (centres unmarked) [Example 82], the IC50 is 250 to 4000 nM. Compound `Cc1nc(C(C)(F)F)ccc1S(=O)(=O)N1CC2(CN(CC3(C)CCOCC3)C2)C1` [Example 83] showed an IC50 of 100 to 250 nM. In turn, `Cc1nc(C(C)(F)F)ccc1S(=O)(=O)N1CC2(CN(C3CCOC3)C2)C1` (centres unmarked) [Example 84] registered an IC50 of 250 to 4000 nM.

With `Cc1nc(C(C)(F)F)ccc1S(=O)(=O)N1CC2(CN(CC3CCOC3)C2)C1` (centres unmarked) [Example 85], the IC50 is < 100 nM. As for `Cc1nc(C(C)(F)F)ccc1S(=O)(=O)N1CC2(CN(C(C)C3CCOC3)C2)C1` (centres unmarked) [Example 86], the IC50 is < 100 nM.

For the compound `Cc1nc(C(C)(F)F)ccc1S(=O)(=O)N1CC2(CN(CC3COC3)C2)C1` [Example 87], the IC50 was < 100 nM. In the case of `Cc1nc(C(C)(F)F)ccc1S(=O)(=O)N1CC2(CN(C(C)C3COC3)C2)C1` (centres unmarked) [Example 88], the IC50 fell in the range of 100 to 250 nM.

With `Cc1nc(C(C)(F)F)ccc1S(=O)(=O)N1CC2(CN(CC3(C)COC3)C2)C1` [Example 89], the IC50 was < 100 nM.

In turn, `Cc1nc(C(F)F)ccc1S(=O)(=O)N1CC2(CN(C3CCOCC3)C2)C1` [Example 90, 2-((6-(difluoromethyl)-2-methylpyridin-3-yl)sulfonyl)-6-(tetrahydro-2H-pyran-4-yl)-2,6-diazaspiro[3.3]heptane] returned an IC50 of 100 to 250 nM. Compound `Cc1nc(C(F)F)ccc1S(=O)(=O)N1CC2(CN(C3CC4(COC4)C3)C2)C1` [Example 91, 2-((6-(difluoromethyl)-2-methylpyridin-3-yl)sulfonyl)-6-(2-oxaspiro[3.3]heptan-6-yl)-2,6-diazaspiro[3.3]heptane] came in with an IC50 of 250 to 4000 nM. As to `Cc1nc(C(C)(C)F)ccc1S(=O)(=O)N1CC2(CN(C3CC4(COC4)C3)C2)C1` [Example 92, 2-((6-(2-fluoropropan-2-yl)-2-methylpyridin-3-yl)sulfonyl)-6-(2-oxaspiro[3.3]heptan-6-yl)-2,6-diazaspiro[3.3]heptane], the IC50 was < 100 nM. For the compound `Cc1nc(C(C)(C)F)ccc1S(=O)(=O)N1CC2(CN(C3CCOCC3)C2)C1` [Example 93, 2-((6-(2-fluoropropan-2-yl)-2-methylpyridin-3-yl)sulfonyl)-6-(tetrahydro-2H-pyran-4-yl)-2,6-diazaspiro[3.3]heptane], the IC50 was < 100 nM.
